In brackets after ≈: the same amount, converted by molar mass. Activity calls are given as the source filed them. The rule behind the calls is not given here.
Tests used:
MCF7 = test: Cytotoxicity against human MCF7 cells by MTT assay; type: functional, cell-based
A549 = test: Cytotoxicity against human A549 cells by MTT assay; type: functional, cell-based
MDA-MB-23 = test: (§1) Cytotoxicity against human […] by MTT assay; type: functional, cell-based
HepG2 = test: Cytotoxicity against human HepG2 cells by MTT assay; type: functional, cell-based
RAW264.7 [1] = test: Induction of COX2 expression in LPS-stimulated mouse RAW264.7 cells at 50 uM by immunoblot analysis relative to control; type: functional
RAW264.7 [2] = test: Antiinflammatory activity in LPS-stimulated mouse RAW264.7 cells assessed as reduction of iNOS levels at 50 uM by immunoblot analysis relative to control; type: functional
RAW264.7 [3] = test: Antiinflammatory activity in LPS-stimulated mouse RAW264.7 cells assessed as reduction of COX2 expression by immunoblot analysis relative to control; type: functional, cell-based
RAW264.7 [4] = test: Induction of iNOS levels in LPS-stimulated mouse RAW264.7 cells at 50 uM by immunoblot analysis relative to control; type: functional
[5] = as §1; type: functional, cell-based

SMILES | Activity (MCF7) | Activity (A549) | Activity (MDA-MB-23) | Activity (HepG2) | Activity (RAW264.7 [1]) [%] | Activity (RAW264.7 [2]) | Activity (RAW264.7 [3]) | Activity (RAW264.7 [4]) [%] | IC50 [5] [µg/mL]
C/C1=C/C(=O)C[C@@H](C)CC/C(C(C)(C)O)=C\C=C(/C)CCC1 | inactive | inactive | inactive | inactive | – | – | – | – | –
C/C1=C\CCC(=O)[C@H](C)/C=C(/C(C)(C)O)CC[C@H](C)CC(=O)C1 | inactive | inactive | inactive | inactive | – | – | – | – | –
C/C1=C\CC[C@]2(C)O[C@H]2/C=C(/C(C)(C)O)CC[C@H](C)CC(=O)C1 (relative stereo) [GRANDILOBATIN B] | inactive | inactive | inactive | inactive | 117.3 | inactive | inactive | 112.4 | –
C/C1=C\C=C(\C(C)(C)O)CC[C@H](C)CC(=O)C/C(C)=C/CC1 [GRANDILOBATIN D] | inactive | inactive | – | inactive | – | 28.7% | inactive | – | 15.8 (≈ 51.9 µM)
CO[C@@]1(C(C)(C)O)/C=C/[C@](C)(O)CC/C=C(\C)CC(=O)C[C@@H](C)CC1 (relative stereo) | inactive | inactive | inactive | inactive | – | – | – | – | –

Source: ChEMBL document CHEMBL1157386, “A C-3 methylated isocembranoid and 10-oxocembranoids from a formosan soft coral, Sinularia grandilobata” (J Nat Prod, 2008)
